Assay results from US5356928A, “Cytotoxic agents” (Hauser Chemical Research, Inc., priority 1993, dated 1994).
≈ marks a conversion by molar mass, not a printed value. Entries after “also recorded” stand apart in the source; their conditions may differ. Like-named read-outs stand apart in the source and are kept apart here.

Tests used:
[1] = tested on: Tubulin free of microtubule-associated proteins; experiment: Tubulin Assembly (microtubule assembly; protein concentration of the supernatant); format: biochemical, bovine; conditions: for Tubulin Assembly ED50: concentration which reduces the supernatant protein concentration by 50%, tubulin 1 mg/ml, 37° C., 15 minutes, PEM buffer pH 6.9; for Tubulin Assembly ED50 /ED50 Taxol: relative to control sample of taxol, less than 1 = greater activity than taxol
Source text: This example illustrates the results of biological tests on the compounds of this invention and certain "controls" with respect to tubulin binding and the effect of these compounds on B16 melanoma. The following procedures were employed:
Tubulin Preparation and Assembly. The tubulin testing was done exactly as described by Himes (Georg, G. I., et al., "Synthesis of Biologically Active Taxol Analogs with Modified Phenylisoserine Side Chains", J. Med. Chem. Vol. 35: 4230, (1992)), incorporated herein by reference. Tubulin free of microtubule-associated proteins was purified from bovine brain as described in Algaier, J.; Himes, R. H., "The Effect of Dimethyl Sulfoxide on the Kinetics of Tubulin Assembly" Biochim. Biophys. Acta, Vol 954, pp 235-243, 1988. The assembly reaction was done at 37° C. in PEM buffer ([…], pH 6.9, 1 mM EGTA, and 1 mM MgSO4) at a protein concentration of 1 mg/ml (10 μM) in the presence of taxol or taxol analogs and 0.5 mM GTP. The reaction was monitored by the increase in the apparent absorbance at 350 nm.
Taxol has been included in Table 1 for reference. […] A number less than 1 in these columns indicates greater activity than taxol. A number greater than 1 in these columns indicates lower activity than taxol. These tests have been used and relied upon by researchers in this field to determine the potential efficacy of taxol and/or a taxol analog for the treatment of cancer.
^b Tubulin at 1 mg/ml was incubated with various concentrations of th
compounds at 37° C. for 15 minutes in 0.5 ml of PEM buffer (0.1M
Pipes, 1 mM EGTA, 1 mM MgSO4, pH 6.9). Samples were centrifuged and
the protein concentration on the supernatant was determined.
^d The concentration in μg/ml which reduces the supernatant protei

[2] = tested on: B16 melanoma cells; experiment: B16 Melanoma Cell Proliferation; format: cell-based; conditions: for B16 Proliferation ED50 /ED50 Taxol: relative to control sample of taxol, less than 1 = greater activity than taxol; for IC50: Mus musculus, read-out: B16 Proliferation ED50
Experimental: The following procedures were employed:
B16 Melanoma Cell Proliferation. Cells were seeded in 24-well plates at 7.5×10^4 cells/well and grown in Delbecco's modified minimal essential medium (MEM) containing 10% bovine calf serum at 37° C. for 24 hours in a 97% humidified atmosphere of 5.5% CO2, the medium was then replaced with fresh medium containing taxol or its derivatives and dissolved in DMSO in concentrations ranging from […] to 1×10^-7 M for taxol and other derivatives. The final concentration of DMSO in the cell medium was 0.5% or less. […] After 40 hours, the cells were released by trypsinization and counted in a Coulter counter.
A number less than 1 in these columns indicates greater activity than taxol. A number greater than 1 in these columns indicates lower activity than taxol.

[3] = tested on: cell; conditions: literature on taxol and taxol analogs (Kingston); cited from earlier work
[4] = tested on: tubulin; conditions: Taxotere compared with taxol; taxol per Schiff et al.; Kingston review; cited from earlier work
[5] = tested on: P388 murine leukemia cells; conditions: Taxotere vs taxol; cited from earlier work
[6] = tested on: macrophage-like J774.2 cells; conditions: mouse macrophage-like J774.2 cells; Taxotere vs taxol; cited from earlier work
[7] = tested on: taxol-resistant tumor cells; conditions: Taxotere vs taxol; cited from earlier work
[8] = cited from earlier work
[9] = B16, concentration which reduces the number of cells by 50 [%] compared to a control, about 40 h at 37° C., highest concentration used 1000 ng/ml

SMILES	Tubulin Assembly ED50 [1] [µg/mL]	Tubulin Assembly ED50 /ED50 Taxol [1]	B16 Proliferation ED50 /ED50 Taxol [2]	IC50 ([2]; B16, 40 h) [µg/mL]	also measured
CC(=O)O[C@H]1C(=O)[C@@]2(C)[C@H]([C@H](OC(=O)c3ccccc3)[C@]3(O)C[C@H](OC(=O)[C@H](O)[C@@H](NC(=O)c4ccccc4)c4ccccc4)C(C)=C1C3(C)C)[C@]1(OC(C)=O)CO[C@@H]1C[C@@H]2O [Compound 1, taxol]	1.08	1.26	0.95	–	ED50 for taxol in the assembly assay ([1]; control sample, denominator of ED50/ED50 Taxol, 15 min): 0.854 µg/mL; cytotoxicity / activity, in words [3]: significant cytotoxicity; activity as a promoter of tubulin polymerization / tubulin binding, in words [4]: significant tubulin binding activity
CC(=O)O[C@@]12CO[C@@H]1C[C@H](O)[C@@]1(C)C(=O)[C@H](O)C3=C(C)[C@@H](OC(=O)[C@H](O)[C@@H](NC(=O)OC(C)(C)C)c4ccccc4)C[C@@](O)([C@@H](OC(=O)c4ccccc4)[C@H]21)C3(C)C [Compound 2]	–	–	–	–	potency as an inhibitor of replication, times more potent than taxol [5]: 1.5 times; potency as an inhibitor of replication, times more potent than taxol [6]: 1.5 times; potency in taxol-resistant tumor cells, vs taxol [7]: at least five-fold more potent; activity as a promoter of tubulin polymerization / tubulin binding, in words [4]: slightly more active as a promoter of tubulin polymerization; also recorded: enhanced in vitro tubulin binding activity; water solubility, in words [8]: improved water solubility
CC(=O)O[C@H]1C(=O)[C@]2(C)[C@@H](O[C@@H]3OC[C@@H](O)[C@H](O)[C@H]3O)C[C@H]3OC[C@@]3(OC(C)=O)[C@H]2[C@H](OC(=O)c2ccccc2)[C@]2(O)C[C@H](OC(=O)[C@H](O)[C@@H](NC(=O)c3ccccc3)c3ccccc3)C(C)=C1C2(C)C [Compound 3, 7-xylosyl taxol]	0.82	0.80	40.8	0.925 (≈ 0.938 µM)	–
CC(=O)O[C@H]1C(=O)[C@]2(C)[C@@H](O[C@@H]3OCC(O)OC3O)C[C@H]3OC[C@@]3(OC(C)=O)[C@H]2[C@H](OC(=O)c2ccccc2)[C@]2(O)C[C@H](OC(=O)[C@H](O)[C@@H](NC(=O)c3ccccc3)c3ccccc3)C(C)=C1C2(C)C (stereo partly shown) [Compound 4]	0.48	0.57	2.2	–	tubulin binding / in vitro tubulin assembly, in words ([1]; compared to taxol or to precursors): comparable to results for taxol; cytotoxicity, in words ([2]; B16 melanoma, compared to taxol or to precursors): comparable to results for taxol; IC50 [2, 9]: 0.05 µg/mL (≈ 0.0514 µM)
CC(=O)O[C@@]12CO[C@@H]1C[C@H](O[C@@H]1OC[C@@H](O)[C@H](O)[C@H]1O)[C@@]1(C)C(=O)[C@H](O)C3=C(C)[C@@H](OC(=O)[C@H](O)[C@@H](NC(=O)c4ccccc4)c4ccccc4)C[C@@](O)([C@@H](OC(=O)c4ccccc4)[C@H]21)C3(C)C [Compound 5, 10-deacetyl-7-xylosyl taxol]	0.72	0.70	> 44	> 1	–
CC(=O)O[C@@]12CO[C@@H]1C[C@H](O[C@@H]1OCC(O)OC1O)[C@@]1(C)C(=O)[C@H](O)C3=C(C)[C@@H](OC(=O)[C@H](O)[C@@H](NC(=O)c4ccccc4)c4ccccc4)C[C@@](O)([C@@H](OC(=O)c4ccccc4)[C@H]21)C3(C)C (stereo partly shown) [Compound 6]	0.68	0.80	15.1	0.432 (≈ 0.465 µM)	–
C/C=C(\C)C(=O)N[C@@H](c1ccccc1)[C@@H](O)C(=O)O[C@H]1C[C@@]2(O)[C@@H](OC(=O)c3ccccc3)[C@@H]3[C@]4(OC(C)=O)CO[C@@H]4C[C@H](O[C@@H]4OC[C@@H](O)[C@H](O)[C@H]4O)[C@@]3(C)C(=O)[C@H](O)C(=C1C)C2(C)C [Compound 9, 10-deacetyl-7-xylosyl cephalomannine]	1.10	1.10	33.3	0.755 (≈ 0.819 µM)	–
C/C=C(\C)C(=O)N[C@@H](c1ccccc1)[C@@H](O)C(=O)O[C@H]1C[C@@]2(O)[C@@H](OC(=O)c3ccccc3)[C@@H]3[C@]4(OC(C)=O)CO[C@@H]4C[C@H](O[C@@H]4OCC(O)OC4O)[C@@]3(C)C(=O)[C@H](O)C(=C1C)C2(C)C (stereo partly shown) [Compound 10]	0.82	0.96	14.1	0.317 (≈ 0.349 µM)	–
CCCCCC(=O)N[C@@H](c1ccccc1)[C@@H](O)C(=O)O[C@H]1C[C@@]2(O)[C@@H](OC(=O)c3ccccc3)[C@@H]3[C@]4(OC(C)=O)CO[C@@H]4C[C@H](O[C@@H]4OC[C@@H](O)[C@H](O)[C@H]4O)[C@@]3(C)C(=O)[C@H](O)C(=C1C)C2(C)C [Compound 13, 10-deacetyl-7-xylosyl taxol C]	0.58	0.60	> 44	> 1	–
CCCCCC(=O)N[C@@H](c1ccccc1)[C@@H](O)C(=O)O[C@H]1C[C@@]2(O)[C@@H](OC(=O)c3ccccc3)[C@@H]3[C@]4(OC(C)=O)CO[C@@H]4C[C@H](O[C@@H]4OCC(O)OC4O)[C@@]3(C)C(=O)[C@H](O)C(=C1C)C2(C)C (stereo partly shown) [Compound 14]	1.45	1.70	8.28	–	IC50 [2, 9]: 0.186 µg/mL (≈ 0.201 µM)
CC(=O)O[C@@]12CO[C@@H]1C[C@H](O[C@@H](CO)OCCO)[C@@]1(C)C(=O)[C@H](O)C3=C(C)[C@@H](OC(=O)[C@H](O)[C@@H](NC(=O)c4ccccc4)c4ccccc4)C[C@@](O)([C@@H](OC(=O)c4ccccc4)[C@H]21)C3(C)C [Compound 15]	1.42	1.66	14.6	–	IC50 [2, 9]: 0.328 µg/mL (≈ 0.358 µM)
